Source: US9598667B2, “Use of metal ions for modulation of protein glycosylation profiles of recombinant proteins” (AbbVie, Inc., priority 2013, dated 2017)

Key:
[1] = test system: N-glycan glycosylation profile of DVD-Ig (DVD 1) expressed in CHO cells; assay: N-glycan oligosaccharide profile of DVD-Ig (DVD 1) from shake flask culture; assay type: cell-based, Chinese Hamster
Method: Sodium citrate was included to provide additional evidence that the impact to the oligosaccharide profile with the prior experiments was a result of the iron addition. All conditions were performed in triplicate.

[2] = test system: N-glycan glycosylation profile of Antibody 1 expressed in CHO cells; assay: N-glycan oligosaccharide profile of Antibody 1 from shake flask culture (2-AB labelling, normal phase HPLC); settings: for galactosylation: Example 7
Text: (§1) To test the effect of metal ions of protein glycosylation, recombinant Chinese Hamster Ovary (CHO) cell lines (CHO DUX-B11 origin based on a DHFR (dihydrofolate reductase) expression system) expressing two different humanized monoclonal antibodies (Antibody 1, Antibody 2) or a dual variable domain immunoglobulin (DVD-Ig) were shake flask cultured in chemically defined basal medium (CDBM) and chemically defined feed medium (CDFM) supplemented with selected iron compounds. The cell lines were serially expanded through separate seed train inoculums to generate enough cells for inoculation. All supplemented cultures were performed in triplicate unless otherwise indicated.
The glycosylation profile of the recombinantly expressed proteins was then determined using standard procedures. Approximately 200 μg of Protein A purified samples from Cell Lines 1 and 2 were then treated with N-glycanase at 37° C. overnight to remove the N-glycans from the protein. The protein was precipitated and the supernatant was taken for subsequent chemical derivatization of the reducing end of the released glycans with 2-aminobenzamide (2-AB) dye. Following the derivatization step, the excess labeled was removed using clean up cartridges and the samples were analyzed using normal phase HPLC with fluorescent detection. Mobile phase A was 100% acetonitrile and mobile phase B was 50 mM ammonium formate pH 4.4. The glycan were eluted from a polyamide column (Prozyme, Hayward, Calif.) using a shallow gradient. The labeled glycans were detected using a fluorescence detector with an excitation wavelength of 330 nm and an emission wavelength of 420 nm.
Concentrations of the respective iron compounds were chosen so as to minimize any potential adverse impacts on cell growth and productivity, but still facilitate a measurable impact on the glycoform profile. […] Cell culture process performance indicators were monitored and measured throughout the respective cultures. Viable cell density, cell viability, harvest titer, and harvest N-glycan oligosaccharide data was measured and reported.
By introducing iron to the culture via the feed medium, exposure to iron would be more gradual over the length of the culture. The impact to Antibody 1 was evaluated in triplicate shake flasks as described previously.
All evaluations were performed in triplicate in shake flasks with the cell line expressing Antibody 1.
The next set of experiments explored if iron transport into the cell or the galactose availability were the limiting factors. Recombinant transferrin (rTf) was added to triplicate shake flask cultures with the cell line expressing Antibody 1 with varying concentrations of ferric citrate. An independent experiment was performed with the same cell line to also determine if galactose supplementation in addition to iron and transferrin would enhance the galactosylation with triplicate shake flasks for each condition.

[3] = test system: CHO cell line expressing Antibody 2; assay: Shake flask fedbatch culture performance, cell line expressing Antibody 2; assay type: cell-based, Chinese Hamster; settings: 0.1 or 1.0 mM in basal medium; vs unsupplemented control
Text: as §1
Absolute concentrations were assigned with respect to reference standard calibration curves.
The unsupplemented control was performed in duplicate.

[4] = test system: N-glycan glycosylation profile of Antibody 1; assay: N-glycan oligosaccharide profile of Antibody 1 in bioreactors; assay type: cell-based, Chinese Hamster; settings: pH 6.90, dissolved oxygen 40% air saturation, two independent experiments
Method: Prior experiments included iron supplementation in shake flask cultures. Experiments with the cell line expressing Antibody 1 and with a cell line expressing a different DVD-Ig (denoted DVD 2, also called ABT-122) than discussed previously were carried out to confirm the impact from iron supplements would be observed in bioreactors. Operating conditions were similar to shake flask experiments, but now included pH control at pH 6.90 and dissolved oxygen control at a setpoint of 40% air saturation. Antibody 1 bioreactors were run in triplicate with the exception of the 0.08 mM FC condition. DVD 2 bioreactors were run in duplicate.

[5] = Example 2, vs unsupplemented control

O=C([O-])CC(O)(CC(=O)[O-])C(=O)[O-].[Na+].[Na+].[Na+] [Sodium citrate, reference compound]
effect on oligosaccharide profile ([1]; 0.5 mM, vs unsupplemented control): no effect on the oligosaccharide profile

O=C[C@H](O)[C@@H](O)[C@@H](O)[C@H](O)CO [galactose]
galactosylation ([2]; supplemented with iron (ferric citrate)): increased galactosylation is observed overall
dose dependence of galactosylation ([2]; Example 8, galactose supplementation with ferric citrate): dose-dependence is observed

ferric citrate
increase of peak viable cell density [3]: 4 ×10^6 cells/mL
galactosylation ([1]; increased concentration (0.1, 1 mM)): increased galactosylation
increase in total NA1F and NA2F species [4]: dose-dependence effect
N-glycan glycoform profile (overall result) ([2]; Example 2, concentration dependence below 1.0 mM): very similar results to ferric nitrate

ferrous sulfate
increase in NA2F species [2, 5]: 3 fold
increase in total NA1F species [2, 5]: 3 fold

transferrin: Recombinant transferrin (rTf) added to shake flask cultures
galactosylation ([2]; added with varying concentrations of ferric citrate, without galactose): no impact was observed to the galactosylation
